Test results taken from paper PMC4710522, “A Novel Triazolopyridine-Based Spleen Tyrosine Kinase Inhibitor That Arrests Joint Inflammation” (PLoS ONE, 2016).

Columns and labels:
[1] = target: T1, cSRC_h (Homo sapiens, UniProt P12931); experiment: SelectScreen kinase assay; format: biochemical; conditions: KM ATP, read-out: % control
T1 construct: purchased Life Technologies (Invitrogen) SelectScreen, Z'-LYTE / Adapta

[2] = target: T2, PKC-iota_h (Homo sapiens, UniProt P41743); experiment: SelectScreen kinase assay; format: biochemical; conditions: KM ATP, read-out: % control
T2 construct: purchased Life Technologies (Invitrogen) SelectScreen, Z'-LYTE / Adapta
T2 sequence (P41743 whole entry): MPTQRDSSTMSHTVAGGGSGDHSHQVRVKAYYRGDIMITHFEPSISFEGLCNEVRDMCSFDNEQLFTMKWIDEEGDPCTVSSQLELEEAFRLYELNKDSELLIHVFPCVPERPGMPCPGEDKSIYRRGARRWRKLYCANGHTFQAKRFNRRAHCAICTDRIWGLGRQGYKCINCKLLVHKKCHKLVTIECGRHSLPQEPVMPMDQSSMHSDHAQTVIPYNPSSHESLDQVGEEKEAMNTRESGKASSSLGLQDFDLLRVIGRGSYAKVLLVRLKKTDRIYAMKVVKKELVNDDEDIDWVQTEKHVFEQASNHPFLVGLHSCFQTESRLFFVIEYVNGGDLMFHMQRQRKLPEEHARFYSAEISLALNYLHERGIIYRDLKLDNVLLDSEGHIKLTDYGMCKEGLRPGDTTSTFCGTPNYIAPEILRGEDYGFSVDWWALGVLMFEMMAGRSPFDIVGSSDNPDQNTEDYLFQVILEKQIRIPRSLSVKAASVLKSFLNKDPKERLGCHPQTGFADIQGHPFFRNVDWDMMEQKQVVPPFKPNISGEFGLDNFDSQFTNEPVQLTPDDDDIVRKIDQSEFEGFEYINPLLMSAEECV

[3] = target: T3, Cyp2C19 (Homo sapiens, UniProt P33261); experiment: Vivid cytochrome P450 inhibition assay; format: in vitro ADME; conditions: data not shown
T3 construct: purchased Life Technologies (Vivid Assay kits)
T3 sequence (P33261 whole entry): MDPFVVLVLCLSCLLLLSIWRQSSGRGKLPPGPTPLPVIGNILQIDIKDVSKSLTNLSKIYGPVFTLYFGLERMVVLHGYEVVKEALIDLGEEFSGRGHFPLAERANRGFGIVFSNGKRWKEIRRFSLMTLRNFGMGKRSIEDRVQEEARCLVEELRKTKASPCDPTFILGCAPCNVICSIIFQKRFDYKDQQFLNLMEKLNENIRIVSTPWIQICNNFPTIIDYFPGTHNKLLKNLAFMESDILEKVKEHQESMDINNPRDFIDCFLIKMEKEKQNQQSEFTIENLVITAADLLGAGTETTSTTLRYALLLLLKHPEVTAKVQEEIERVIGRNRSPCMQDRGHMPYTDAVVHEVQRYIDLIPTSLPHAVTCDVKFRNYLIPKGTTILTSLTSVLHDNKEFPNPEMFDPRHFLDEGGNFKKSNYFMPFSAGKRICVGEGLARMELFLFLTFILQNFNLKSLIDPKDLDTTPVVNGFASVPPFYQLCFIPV
Description: (§1) Syk kinase mode of inhibition studies, including parameters described in Fig 1, were conducted on the LC3000 platform by Caliper Life Sciences (Hopkinton, MA) according to standard protocols developed by the supplier. […] Non-kinase enzyme assays and GPCR, ion channel, and transporter binding assays were run by CEREP (France). Non-GLP manual patch clamp hERG assays were run by ChanTest (Cleveland, Ohio). Vivid® Assay kits (Life Technologies) were used to measure the cytochrome P450 inhibition of the compound against CYP3A, CYP2C9, CYP2C19, CYP2D6, and CYP1A2, as described.

[4] = target: T4, Cyp2D6 (Homo sapiens, UniProt P10635); experiment: Vivid cytochrome P450 inhibition assay; format: in vitro ADME; conditions: data not shown
T4 construct: purchased Life Technologies (Vivid Assay kits)
T4 sequence (P10635 whole entry): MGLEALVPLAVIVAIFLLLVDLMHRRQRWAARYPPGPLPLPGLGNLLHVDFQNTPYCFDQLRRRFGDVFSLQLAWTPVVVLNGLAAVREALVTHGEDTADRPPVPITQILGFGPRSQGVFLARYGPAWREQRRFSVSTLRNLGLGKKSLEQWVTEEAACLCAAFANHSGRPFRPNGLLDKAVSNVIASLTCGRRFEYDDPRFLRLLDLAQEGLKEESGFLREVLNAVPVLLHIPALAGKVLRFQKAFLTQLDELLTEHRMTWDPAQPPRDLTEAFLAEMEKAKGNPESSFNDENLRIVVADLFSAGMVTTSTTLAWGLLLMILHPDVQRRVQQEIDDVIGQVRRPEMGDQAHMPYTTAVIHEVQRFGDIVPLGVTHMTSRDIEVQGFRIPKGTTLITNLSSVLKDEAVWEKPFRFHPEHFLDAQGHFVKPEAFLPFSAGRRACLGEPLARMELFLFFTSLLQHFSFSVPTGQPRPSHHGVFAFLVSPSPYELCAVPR
Description: as §1

[5] = target: T5, Cyp3A4 (Homo sapiens, UniProt P08684); experiment: Vivid cytochrome P450 inhibition assay; format: in vitro ADME; conditions: data not shown
T5 construct: purchased Life Technologies (Vivid Assay kits)
T5 sequence (P08684 whole entry): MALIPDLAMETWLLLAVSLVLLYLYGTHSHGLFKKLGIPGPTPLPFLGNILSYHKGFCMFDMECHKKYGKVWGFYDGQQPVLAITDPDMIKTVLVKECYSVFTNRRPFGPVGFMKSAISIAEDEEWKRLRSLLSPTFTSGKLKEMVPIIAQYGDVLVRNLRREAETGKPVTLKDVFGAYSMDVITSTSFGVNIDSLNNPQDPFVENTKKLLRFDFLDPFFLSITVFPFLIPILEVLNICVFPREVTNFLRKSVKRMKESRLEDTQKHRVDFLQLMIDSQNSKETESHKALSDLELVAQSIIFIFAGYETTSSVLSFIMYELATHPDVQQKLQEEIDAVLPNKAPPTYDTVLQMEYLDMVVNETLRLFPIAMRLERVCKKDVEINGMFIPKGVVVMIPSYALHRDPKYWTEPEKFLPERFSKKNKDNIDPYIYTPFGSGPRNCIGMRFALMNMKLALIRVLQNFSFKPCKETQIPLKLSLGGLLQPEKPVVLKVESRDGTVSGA
Description: as §1

[6] = system: Tel-Syk expressing BaF3 cells; experiment: Tel-Syk BaF3 viability assay (growth factor-independent growth); format: cell-based, murine; conditions: Mus musculus; Tel-Syk BaF3, absence of IL-3
Description: HEK293 T-REx™ (Life Technologies, Grand Island, NY) stably transfected with human TEL-Syk (cloned as described prior section DNA constructs) were plated on black poly-D-lysine coated 96-well plates (BD Biosciences, San Diego, CA) in culture media containing tetracycline-free fetal bovine serum (Clontech, MountainView, CA) for 16 hours in a tissue culture incubator. Tel-Syk expression was induced for 6 hours in fresh growth media containing 1 μg/ml tetracycline (Sigma Chemicals, St. Louis, MO). Plates were preincubated with CC-509 for 90 minutes, fixed immediately with 4% formaldehyde in 1X PBS for 20 min at room temperature, and washed/permeabilized 5-times with PBS containing 0.1% Triton X-100. Plates were blocked with Odyssey Blocking Buffer for 90 minutes at room temperature and incubated overnight at 4°C on a rotating platform with rabbit phospho-Syk (1:1000) and mouse V5 (1:2500) primary antibodies diluted in Odyssey Blocking Buffer. […] Viability of BaF/3 cells expressing Tel-Syk grown in the absence of murine IL-3 was measured using Cell-Titer Glo reagent (Promega, Madison, WI), as described by supplier.

[7] = target: Syk (Homo sapiens, UniProt P43405); experiment: Syk HTRF assay; format: biochemical; design: purchased Carna Biosciences 08-176; conditions: in-house, mean ± SD, n = 8
Description: CC-509 was prepared at a concentration of 1.5 mM in dimethyl sulfoxide (DMSO) followed by 3-fold dilutions in Greiner 384 well polypropylene plates. […] Time resolved fluorescence was read in assay plates on a PerkinElmer EnVision. […] The IC50 value was determined as described in the data fitting section below.
For the TEL-Syk assay, the intensity values for the 700 and 800 channel were exported as text files in ActivityBase (IDBS, Guildford, UK) to derive the ratios that reflect kinase activity. […] For the JAK2 HEL and Ramos NFAT β-lactamase assays, the fluorescence values obtained at 460 nm and 530 nm were exported into ActivityBase to calculate response ratios. […] Evans blue dye extravasation was expressed as mean ± SEM and % inhibition for the test article groups was normalized to the cromolyn positive control. […] The mean data from each group was plotted and either the AUC(day 11–18) or % inhibition on day 18 was calculated. Data is expressed as mean ± SEM of each group with n = 6–12. […]

[8] = system: proinflammatory analytes in paw tissue; conditions: cited from earlier work

T1 sequence (P12931 whole entry): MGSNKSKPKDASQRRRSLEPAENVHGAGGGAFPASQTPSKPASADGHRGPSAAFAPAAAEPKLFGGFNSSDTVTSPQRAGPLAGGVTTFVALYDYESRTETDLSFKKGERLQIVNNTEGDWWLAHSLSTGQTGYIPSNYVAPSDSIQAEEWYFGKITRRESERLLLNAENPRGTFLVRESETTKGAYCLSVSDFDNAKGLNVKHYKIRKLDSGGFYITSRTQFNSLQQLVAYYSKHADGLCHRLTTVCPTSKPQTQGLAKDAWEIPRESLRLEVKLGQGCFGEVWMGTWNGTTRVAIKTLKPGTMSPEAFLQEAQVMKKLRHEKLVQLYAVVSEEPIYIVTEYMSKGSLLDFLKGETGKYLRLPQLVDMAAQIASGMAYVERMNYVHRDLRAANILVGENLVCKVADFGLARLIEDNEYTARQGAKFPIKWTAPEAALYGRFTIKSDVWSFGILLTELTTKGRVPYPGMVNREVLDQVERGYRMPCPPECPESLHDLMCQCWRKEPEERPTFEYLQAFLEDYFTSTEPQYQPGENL

Structure (SMILES) | remaining activity at 3 µM [1] | remaining activity at 3 µM [2] | inhibition of Cyp450 activity [3] | inhibition of Cyp450 activity [4] | inhibition of Cyp450 activity [5] | IC50 [6] | IC50 [7] | expression of MCP-1, KC, IL-6 and IL-1β in the CIA model [8]
c1cc(CC2CCOCC2)n2nc(Nc3ccc4c(NC5CCOCC5)n[nH]c4c3)nc2c1 [CC-509, [3-(2H-3,4,5,6-tetrahydropyran-4-ylamino)(1H-indazol-6-yl)][5-(2H-3,4,5,6-tetrahydropyran-4-ylmethyl)(2H-1,2,4-triazolo[1,5-a]pyridin-2-yl)]amine] | 67% | 88% | did not inhibit | did not inhibit | did not inhibit | 1610 ± 410 nM | 26 ± 6 nM | –
COc1cc(Nc2ncc(F)c(Nc3ccc4c(n3)NC(=O)C(C)(C)O4)n2)cc(OC)c1OC [R406, reference compound] | – | – | – | – | – | – | – | inhibited
